In BindingDB's records for doi:10.1021/jm010399h (University of Tennessee Health Science Center, 2002):

Target: Integrase (Human immunodeficiency virus 1, UniProt Q7ZJM1)
Experiment: Inhibitory activity against HIV-1 Integrase (HIV-1-IN)

Integrase, sequence (Q7ZJM1 whole entry): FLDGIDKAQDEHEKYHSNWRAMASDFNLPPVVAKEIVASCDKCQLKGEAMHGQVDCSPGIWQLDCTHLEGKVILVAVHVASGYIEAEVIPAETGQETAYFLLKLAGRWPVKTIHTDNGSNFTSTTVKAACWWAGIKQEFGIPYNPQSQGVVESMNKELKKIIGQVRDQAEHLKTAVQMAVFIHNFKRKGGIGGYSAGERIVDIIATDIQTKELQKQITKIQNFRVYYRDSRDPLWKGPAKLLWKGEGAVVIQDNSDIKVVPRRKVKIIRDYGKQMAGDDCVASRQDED

Structure (SMILES)	IC50
O=C(C=Cc1ccccc1)CC(=O)C=Cc1ccccc1 [5-Hydroxy-1,7-diphenylhepta-1,4,6-trien-3-one]	100 µM
COc1ccc(C=CC(=O)CC(=O)C=Cc2ccc(OC)c(OC)c2)cc1OC [(1E,4Z,6E)-1,7-bis(3,4-dimethoxyphenyl)-5-hydroxyhepta-1,4,6-trien-3-one]	100 µM
